This is an account of results in ChEMBL document CHEMBL5131460, “Glenthenamines A-F: Enamine Pyranonaphthoquinones from the Australian Pasture Plant Derived Streptomyces sp. CMB-PB042” (J Nat Prod, 2022).

One series concerns SW620/AD300. The experiment in a line: Cytotoxicity against human SW620/AD300 cells incubated for 48 hrs by MTT assay. The format is functional, cell-based. Conditions: SW620/AD300, 48 h.
A further series concerns Candida albicans. As to the kind of experiment: Antimicrobial activity against Candida albicans ATCC 10231 incubated for 16 hrs by microplate reader method. The class given is functional, organism-based. The conditions noted are these: ATCC 10231, 16 h.
In the next series the test system is NCI-H460. The experiment in a line: Cytotoxicity against human NCI-H460 cells incubated for 48 hrs by MTT assay. The format is functional, cell-based. The conditions noted are these: NCI-H460, 48 h.
Series [1] deals with ATP-dependent translocase ABCB1 (Homo sapiens, UniProt P08183). The experiment in a line: Reversal of P-glycoprotein mediated doxorubicin resistance in human SW620/AD300 cells overexpressing P-gp assessed as gain in sensitivity against doxorubicin at 2.5 uM incubated for 52 hrs by MTT assay. The class given is cell-based. Conditions: sw620/ad300, 52 h. Background: Tetrazolium assays rely on reduction of a dye to a coloured formazan, in cell work by metabolically active cells.
Chain of ATP-dependent translocase ABCB1 (P08183 whole entry): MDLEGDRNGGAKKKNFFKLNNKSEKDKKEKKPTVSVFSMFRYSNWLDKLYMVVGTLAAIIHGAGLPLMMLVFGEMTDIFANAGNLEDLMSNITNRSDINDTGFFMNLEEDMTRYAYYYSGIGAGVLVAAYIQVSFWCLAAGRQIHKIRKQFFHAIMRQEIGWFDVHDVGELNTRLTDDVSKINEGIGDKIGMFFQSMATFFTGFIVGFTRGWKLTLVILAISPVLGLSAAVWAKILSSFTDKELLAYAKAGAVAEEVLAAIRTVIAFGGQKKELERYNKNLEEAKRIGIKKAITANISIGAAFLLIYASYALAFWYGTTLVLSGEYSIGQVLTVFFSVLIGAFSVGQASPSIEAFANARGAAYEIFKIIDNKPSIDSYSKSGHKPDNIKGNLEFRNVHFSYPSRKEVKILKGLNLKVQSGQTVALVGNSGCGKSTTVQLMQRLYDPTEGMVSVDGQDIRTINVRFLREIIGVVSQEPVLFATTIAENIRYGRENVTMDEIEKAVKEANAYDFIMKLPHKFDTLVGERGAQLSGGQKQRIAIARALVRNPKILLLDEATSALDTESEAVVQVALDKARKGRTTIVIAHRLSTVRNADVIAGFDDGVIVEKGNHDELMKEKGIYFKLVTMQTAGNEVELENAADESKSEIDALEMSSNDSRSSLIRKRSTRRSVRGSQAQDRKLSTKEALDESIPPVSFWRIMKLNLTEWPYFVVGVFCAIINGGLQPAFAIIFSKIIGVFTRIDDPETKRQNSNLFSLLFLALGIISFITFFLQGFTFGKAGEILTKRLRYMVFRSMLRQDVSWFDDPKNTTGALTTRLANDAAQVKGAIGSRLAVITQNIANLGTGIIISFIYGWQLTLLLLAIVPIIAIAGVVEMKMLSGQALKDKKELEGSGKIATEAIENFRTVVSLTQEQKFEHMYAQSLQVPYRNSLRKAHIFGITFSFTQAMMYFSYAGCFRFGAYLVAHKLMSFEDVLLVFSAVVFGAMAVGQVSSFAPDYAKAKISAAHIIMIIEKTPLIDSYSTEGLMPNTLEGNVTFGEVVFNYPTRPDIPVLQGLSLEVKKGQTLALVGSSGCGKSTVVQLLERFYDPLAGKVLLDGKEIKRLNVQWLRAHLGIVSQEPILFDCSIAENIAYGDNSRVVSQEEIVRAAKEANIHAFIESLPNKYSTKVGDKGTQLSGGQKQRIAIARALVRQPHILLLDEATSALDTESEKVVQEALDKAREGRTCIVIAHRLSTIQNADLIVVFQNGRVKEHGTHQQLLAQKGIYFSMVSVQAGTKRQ

A word on the IC50: it is the point on the concentration scale where inhibition reaches its midpoint. Lower therefore signals greater potency.

Take `C[C@H]1O[C@]2(C)CC(=O)O[C@]2(C)c2c1c(O)c1c3c(c4n(c23)[C@@H]([C@@H](C)O)CC4)C=CC1=O`: the IC50 in the series on SW620/AD300, in the series on Candida albicans and in the series on NCI-H460 was over 30 µM in each case.

In the case of `C[C@@H]1O[C@@H](CC(=O)O)C(=O)c2c1c(O)c1c3c(c4n(c23)[C@H]([C@@H](C)O)CC4)C=CC1=O`, the IC50 in the series on SW620/AD300, in the series with Candida albicans and in the series on NCI-H460 was over 30 µM each time. Besides, the Activity in series [1] was determined as 45%.

Take `C[C@H]1Oc2c(O)c3c4c(c5n(c4c2C[C@H](CC(=O)O)O1)[C@H]([C@@H](C)O)CC5)C=CC3=O`: the IC50 with SW620/AD300, in the series on Candida albicans and in the series on NCI-H460 was over 30 µM in each case.

For `C[C@H]1O[C@H](CC(=O)O)Cc2c1c(O)c1c3c(c4n(c23)[C@@H]([C@@H](C)O)CC4)C=CC1=O`, the 50% inhibitory concentration (IC50) in the series on SW620/AD300, in the series on Candida albicans and in the series on NCI-H460 was over 30 µM each time. Moreover, the Activity in series [1] is on record as 45%.

With `C[C@H]1OC(CC(=O)O)=Cc2c1c(O)c1c3c(c4n(c23)[C@H]([C@@H](C)O)CC4)C=CC1=O`, the IC50 with SW620/AD300, in the series on Candida albicans and with NCI-H460 was over 30 µM each time. For the same compound, the Activity in series [1] came to 45%.

As to `C[C@@H]1OC(CC(=O)O)=Cc2c1c(O)c1c3c(c4n(c23)[C@H]([C@@H](C)O)CC4)C=CC1=O`, the IC50 with SW620/AD300, with Candida albicans and in the series on NCI-H460 was over 30 µM throughout. In addition, the Activity in series [1] was determined as 45%.

Consider `C[C@@H](O)[C@@H]1CCc2c3c4c(c(O)c(O)c(C[C@@H](O)CC(=O)O)c4n21)C(=O)C=C3`, for which the IC50 in the series with SW620/AD300, in the series on Candida albicans and with NCI-H460 was over 30 µM throughout.

With `COC(=O)C[C@H]1Cc2c(c(O)c3c4c(c5n(c24)[C@H]([C@@H](C)O)CC5)C=CC3=O)[C@H](C)O1`, the concentration for half-maximal inhibition (IC50) in the series on SW620/AD300, in the series on Candida albicans and in the series with NCI-H460 was over 30 µM throughout. In addition, in series [1], the Activity is reported as 45%.
